Assay results from BindingDB's records for doi:10.1021/jm011081s (The Institute of Cancer Research, 2002).

Test: Growth inhibitory activity against mouse lymphoblastoid L1210TS cell line was determined as inhibition of thymidylate synthase

Structure (SMILES): C#CCN(Cc1cc2c(=O)n(C)c(CN(CC)CC)nc2cc1Cl)c1ccc(C(=O)NCc2cccnc2)cc1 [4-[(7-Chloro-2-diethylaminomethyl-3-methyl-4-oxo-3,4-dihydro-quinazolin-6-ylmethyl)-prop-2-ynyl-amino]-N-pyridin-3-ylmethyl-benzamide]
- IC50: > 50 µM
